Results reported in patent publication US20250340552A1, “COMPOUNDS, COMPOSITIONS AND METHODS OF TREATING DISORDERS” (HOTSPOT THERAPEUTICS, INC., priority 2022, published 2025).
Like-named read-outs stand apart in the source and are kept apart here.

Biological target: T1, Cbl-B (Homo sapiens, UniProt Q13191)
T1 construct: MSD-Based Assay for Degradation of Cbl-B in THP-1 Cells; endogenous in cells; host or cells: THP-1 (title) / Jurkat (protocol text)
Test: MSD-based assay for degradation of Cbl-B in THP-1 cells
Type: cell-based
Method in brief: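 Reported Dmax bins are A >70%, B 50–70%, C 30–50% and D <30%, from an electrochemiluminescence (MSD) sandwich assay of Cbl-B in cell lysates. THP-1 cells were exposed to compounds for 24 hours before lysis.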

[1] = Cbl-B degradation, Jurkat cells seeded (heading: THP-1 cells), 24 hours incubation, MSD readout
[2] = Cbl-B degradation, Jurkat cells seeded (heading: THP-1 cells), 24 hours incubation, MSD readout, read-out: Dmax

T1 sequence (Q13191 whole entry): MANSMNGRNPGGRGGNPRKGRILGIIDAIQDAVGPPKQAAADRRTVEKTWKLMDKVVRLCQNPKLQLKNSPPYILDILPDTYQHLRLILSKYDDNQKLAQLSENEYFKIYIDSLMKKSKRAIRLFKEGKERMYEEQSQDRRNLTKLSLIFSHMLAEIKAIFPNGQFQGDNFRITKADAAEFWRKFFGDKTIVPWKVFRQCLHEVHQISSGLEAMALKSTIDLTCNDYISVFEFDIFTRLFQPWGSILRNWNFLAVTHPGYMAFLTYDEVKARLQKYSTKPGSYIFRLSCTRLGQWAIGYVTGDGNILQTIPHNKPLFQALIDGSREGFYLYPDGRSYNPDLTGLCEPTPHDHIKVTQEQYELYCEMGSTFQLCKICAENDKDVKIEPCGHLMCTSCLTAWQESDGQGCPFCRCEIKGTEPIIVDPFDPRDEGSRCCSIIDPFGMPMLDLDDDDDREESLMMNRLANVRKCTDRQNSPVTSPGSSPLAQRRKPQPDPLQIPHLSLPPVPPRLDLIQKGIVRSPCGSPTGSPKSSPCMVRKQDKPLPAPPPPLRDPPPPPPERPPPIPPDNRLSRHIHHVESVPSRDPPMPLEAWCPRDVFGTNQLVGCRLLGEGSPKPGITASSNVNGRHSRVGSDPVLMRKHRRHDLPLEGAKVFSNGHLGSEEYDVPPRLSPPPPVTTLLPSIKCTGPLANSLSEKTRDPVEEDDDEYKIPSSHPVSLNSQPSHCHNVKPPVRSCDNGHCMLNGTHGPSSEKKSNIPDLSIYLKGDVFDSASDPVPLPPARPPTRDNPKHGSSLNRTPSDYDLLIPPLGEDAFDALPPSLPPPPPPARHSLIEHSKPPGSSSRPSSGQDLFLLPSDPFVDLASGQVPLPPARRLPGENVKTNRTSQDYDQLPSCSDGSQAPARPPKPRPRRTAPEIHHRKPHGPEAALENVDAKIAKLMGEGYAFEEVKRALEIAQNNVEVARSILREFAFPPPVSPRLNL

SMILES	DC50 [1] [nM]	Dmax [2] [%]	Dmax (THP-1) [%]
Cn1cnnc1CC1(c2cccc(-n3cc4c(C(F)(F)F)cc(CNCCOCCNc5cccc6c5C(=O)N(C5CCC(=O)NC5=O)C6=O)cn4c3=O)c2)COC1 (centres unmarked) [Compound 2]	> 10000	< 30	–
Cn1cnnc1CC1(c2cccc(-n3cc4c(C(F)(F)F)cc(CN5CCC(OCCOCc6ccc(COCCNc7cccc8c7C(=O)N(C7CCC(=O)NC7=O)C8=O)cc6)CC5)cn4c3=O)c2)COC1 (centres unmarked) [Compound 3]	300 to 1000	50 to 70	–
Cn1cnnc1CC1(c2cccc(-n3cc4c(C(F)(F)F)cc(CNCCOCCOCc5ccc(COCCNc6cccc7c6C(=O)N(C6CCC(=O)NC6=O)C7=O)cc5)cn4c3=O)c2)COC1 (centres unmarked) [Compound 4]	> 10000	< 30	–
Cn1cnnc1CC1(c2cccc(-n3cc4c(C(F)(F)F)cc(CN5CCC(OCCN6CCC(CN7CCN(c8cc9c(cc8F)C(=O)N(C8CCC(=O)NC8=O)C9=O)CC7)CC6)CC5)cn4c3=O)c2)COC1 (centres unmarked) [Compound 7]	> 10000	–	< 30
Cn1cnnc1CC1(c2cccc(-n3cc4c(C(F)(F)F)cc(CN5CCC(OCCOCc6ccc(CNc7cccc8c7C(=O)N(C7CCC(=O)NC7=O)C8=O)cc6)CC5)cn4c3=O)c2)COC1 (centres unmarked) [Compound 12]	> 10000	< 30	–
Cn1cnnc1[C@@H](c1cccc(-n2cc3c(C(F)(F)F)cc(CN4CCC(OCc5ccc(COCCNc6cccc7c6C(=O)N(C6CCC(=O)NC6=O)C7=O)cc5)CC4)cn3c2=O)c1)C1CCC1 (some centres unmarked) [Compound 13]	1000 to 10000	< 30	–
Cn1cnnc1[C@@H](c1cccc(-n2cc3c(C(F)(F)F)cc(CN4CCC(OCCOCc5ccc(CNc6cccc7c6C(=O)N(C6CCC(=O)NC6=O)C7=O)cc5)CC4)cn3c2=O)c1)C1CCC1 (some centres unmarked) [Compound 14]	1000 to 10000	30 to 50	–
CN(CCN1CCC(CN2CCN(c3cc4c(cc3F)C(=O)N(C3CCC(=O)NC3=O)C4=O)CC2)CC1)Cc1cc(C(F)(F)F)c2cn(-c3cccc(C4(Cc5nncn5C)COC4)c3)c(=O)n2c1 (centres unmarked) [Compound 15]	> 10000	< 30	–
Cn1cnnc1[C@@H](c1cccc(-n2cc3c(C(F)(F)F)cc(CN4CCC(OCCN5CCC(CN6CCN(c7cc8c(cc7F)C(=O)N(C7CCC(=O)NC7=O)C8=O)CC6)CC5)CC4)cn3c2=O)c1)C1CCC1 (some centres unmarked) [Compound 16]	1000 to 10000	30 to 50	–
Cn1cnnc1[C@@H](c1cccc(-n2cc3c(C(F)(F)F)cc(CN4CCC[C@H](OCCOCc5ccc(COCCNc6cccc7c6C(=O)N(C6CCC(=O)NC6=O)C7=O)cc5)C4)cn3c2=O)c1)C1CCC1 (some centres unmarked) [Compound 17]	30 to 300	50 to 70	–
Cn1cnnc1CC1(c2cccc(-n3cc4c(C(F)(F)F)cc(CN5CCC(OCCOCc6ccc(CN7CCN(c8cc9c(cc8F)C(=O)N(C8CCC(=O)NC8=O)C9=O)CC7)cc6)CC5)cn4c3=O)c2)COC1 (centres unmarked) [Compound 18]	> 10000	< 30	–
Cn1cnnc1CC1(c2cccc(-n3cc4c(C(F)(F)F)cc(CN5CCC(OCCOCc6ccc(CN7CCN(c8cccc9c8C(=O)N(C8CCC(=O)NC8=O)C9=O)CC7)cc6)CC5)cn4c3=O)c2)COC1 (centres unmarked) [Compound 19]	> 10000	< 30	–
Cn1cnnc1[C@@H](c1cccc(-n2cc3c(C(F)(F)F)cc(CC4CCC[C@@H](OCCOCc5ccc(COCCNc6cccc7c6C(=O)N(C6CCC(=O)NC6=O)C7=O)cc5)C4)cn3c2=O)c1)C1CCC1 (some centres unmarked) [Compound 20]	300 to 1000	50 to 70	–
Cn1cnnc1CC1(c2cccc(N3Cc4c(cc(CN5CCC(OCCOCc6ccc(COCCNc7cccc8c7C(=O)N(C7CCC(=O)NC7=O)C8=O)cc6)CC5)cc4C(F)(F)F)C3=O)c2)COC1 (centres unmarked) [Compound 21]	1000 to 10000	30 to 50	–
Cn1cnnc1[C@@H](c1cccc(N2Cc3c(cc(CN4CCC(OCCOCc5ccc(COCCNc6cccc7c6C(=O)N(C6CCC(=O)NC6=O)C7=O)cc5)CC4)cc3C(F)(F)F)C2=O)c1)C1CCC1 (some centres unmarked) [Compound 22]	30 to 300	> 70	–
Cn1cnnc1[C@@H](c1cccc(-n2cc3c(C(F)(F)F)cc(CN4CCC(OCCOCc5ccc(CN6CCN(c7cc8c(cc7F)C(=O)N(C7CCC(=O)NC7=O)C8=O)CC6)cc5)CC4)cn3c2=O)c1)C1CCC1 (some centres unmarked) [Compound 23]	> 10000	< 30	–
Cn1cnnc1[C@@H](c1cccc(-n2cc3c(C(F)(F)F)cc(CN4CCC(OCCOCc5ccc(CN6CCN(c7cccc8c7C(=O)N(C7CCC(=O)NC7=O)C8=O)CC6)cc5)CC4)cn3c2=O)c1)C1CCC1 (some centres unmarked) [Compound 24]	> 10000	< 30	–
Cn1cnnc1CC1(c2cccc(-n3cc4c(C(F)(F)F)cc(CN5CCC(OCCN6CCC(CN7CCCN(c8ccc9c(c8)CN(C8CCC(=O)NC8=O)C9=O)CC7)CC6)CC5)cn4c3=O)c2)COC1 (centres unmarked) [Compound 25]	300 to 1000	30 to 50	–
Cn1cnnc1[C@@H](c1cccc(-n2cc3c(C(F)(F)F)cc(CN4CCC(COCc5ccc(CN6CCN(c7cccc8c7C(=O)N(C7CCC(=O)NC7=O)C8=O)CC6)cc5)CC4)cn3c2=O)c1)C1CCC1 (some centres unmarked) [Compound 28]	> 10000	< 30	–

SMILES	DC50 [1] [nM]	Dmax [2] [%]	Dmax (THP-1) [%]
Cn1cnnc1[C@@H](c1cccc(-n2cc3c(C(F)(F)F)cc(CN4CCC(CN5CCC(CN6CCN(c7cc8c(cc7F)C(=O)N(C7CCC(=O)NC7=O)C8=O)CC6)CC5)CC4)cn3c2=O)c1)C1CCC1 (some centres unmarked) [Compound 29]	> 10000	< 30	–
Cn1cnnc1[C@@H](c1cccc(-n2cc3c(C(F)(F)F)cc(CN4CCC(C(=O)N5CCC(CN6CCN(c7cc8c(cc7F)C(=O)N(C7CCC(=O)NC7=O)C8=O)CC6)CC5)CC4)cn3c2=O)c1)C1CCC1 (some centres unmarked) [Compound 30]	> 10000	< 30	–
Cn1cnnc1[C@@H](c1cccc(-n2cc3c(C(F)(F)F)cc(CN4CCC[C@@H](OCCOCc5ccc(COCCNc6cccc7c6C(=O)N(C6CCC(=O)NC6=O)C7=O)cc5)CC4)cn3c2=O)c1)C1CCC1 (some centres unmarked) [Compound 31]	30 to 300	50 to 70	–
Cn1cnnc1[C@@H](c1cccc(-n2cc3c(C(F)(F)F)cc(CN4CCC[C@H](OCCOCc5ccc(COCCNc6cccc7c6C(=O)N(C6CCC(=O)NC6=O)C7=O)cc5)CC4)cn3c2=O)c1)C1CCC1 (some centres unmarked) [Compound 32]	30 to 300	30 to 50	–
CN(CCOC1CCN(Cc2cc(C(F)(F)F)c3cn(-c4cccc([C@H](c5nncn5C)C5CCC5)c4)c(=O)n3c2)CC1)C(=O)c1ccc(N2CCN(c3cccc4c3C(=O)N(C3CCC(=O)NC3=O)C4=O)CC2)cc1 (some centres unmarked) [Compound 33]	> 10000	< 30	–
CN(CCOC1CCN(Cc2cc(C(F)(F)F)c3cn(-c4cccc([C@H](c5nncn5C)C5CCC5)c4)c(=O)n3c2)CC1)C(=O)c1ccc(N2CCN(c3ccc4c(c3)CN([C@H]3CCC(=O)NC3=O)C4=O)CC2)cc1 [Compound 34]	30 to 300	–	> 70
CN(CCOC1CCN(Cc2cc(C(F)(F)F)c3cn(-c4cccc([C@H](c5nncn5C)C5CCC5)c4)c(=O)n3c2)CC1)C(=O)c1ccc(N2CCN(c3ccc4c(c3)CN([C@@H]3CCC(=O)NC3=O)C4=O)CC2)cc1 [Compound 35]	300 to 1000	50 to 70	–
Cn1cnnc1CC1(c2cccc(-n3cc4c(C(F)(F)F)cc(CN5CCC(OCCNc6cccc7c6C(=O)N(C6CCC(=O)NC6=O)C7=O)CC5)cn4c3=O)c2)COC1 (centres unmarked) [Compound 36]	1000 to 10000	< 30	–
Cn1cnnc1[C@@H](c1cccc(-n2cc3c(C(F)(F)F)cc(CN4CCC(OCCNc5cccc6c5C(=O)N(C5CCC(=O)NC5=O)C6=O)CC4)cn3c2=O)c1)C1CCC1 (some centres unmarked) [Compound 37]	1000 to 10000	< 30	–
Cn1cnnc1[C@@H](c1cccc(-n2cc3c(C(F)(F)F)cc(CN4CCC(CN5CCC(CN6CCN(c7ccc8c(c7)CN(C7CCC(=O)NC7=O)C8=O)CC6)CC5)CC4)cn3c2=O)c1)C1CCC1 (some centres unmarked) [Compound 38]	1000 to 10000	50 to 70	–
Cn1cnnc1CC1(c2cccc(-n3cc4c(C(F)(F)F)cc(CN5CCC(N6CCN(c7ccc8c(c7)CN(C7CCC(=O)NC7=O)C8=O)CC6)CC5)cn4c3=O)c2)COC1 (centres unmarked) [Compound 39]	> 10000	–	< 30
Cn1cnnc1CC1(c2cccc(-n3cc4c(C(F)(F)F)cc(CN5CCC(CN6CCC(CN7CCN(c8ccc9c(c8)CN(C8CCC(=O)NC8=O)C9=O)CC7)CC6)CC5)cn4c3=O)c2)COC1 (centres unmarked) [Compound 42]	> 10000	–	< 30
Cn1cnnc1CC1(c2cccc(-n3cc4c(C(F)(F)F)cc(CN5CCC(C(=O)N6CCC(CN7CCN(c8ccc9c(c8)CN(C8CCC(=O)NC8=O)C9=O)CC7)CC6)CC5)cn4c3=O)c2)COC1 (centres unmarked) [Compound 43]	> 10000	–	< 30
Cn1cnnc1[C@@H](c1cccc(-n2cc3c(C(F)(F)F)cc(CN4CCC(C(=O)N5CCC(CN6CCN(c7ccc8c(c7)CN(C7CCC(=O)NC7=O)C8=O)CC6)CC5)CC4)cn3c2=O)c1)C1CCC1 (some centres unmarked) [Compound 44]	> 10000	30 to 50	–
Cn1cnnc1CC1(c2cccc(-n3cc4c(C(F)(F)F)cc(CN5CC[C@@H](OCCOCc6ccc(COCCNc7cccc8c7C(=O)N(C7CCC(=O)NC7=O)C8=O)cc6)C5)cn4c3=O)c2)COC1 (some centres unmarked) [Compound 45]	300 to 1000	50 to 70	–
Cn1cnnc1CC1(c2cccc(-n3cc4c(C(F)(F)F)cc(CN5CC[C@H](OCCOCc6ccc(COCCNc7cccc8c7C(=O)N(C7CCC(=O)NC7=O)C8=O)cc6)C5)cn4c3=O)c2)COC1 (some centres unmarked) [Compound 46]	> 10000	30 to 50	–
Cn1cnnc1[C@@H](c1cccc(-n2cc3c(C(F)(F)F)cc(CN4CCC[C@H](OCCN5CCC(CN6CCN(c7ccc8c(c7)CN([C@@H]7CCC(=O)NC7=O)C8=O)CC6)CC5)C4)cn3c2=O)c1)C1CCC1 [Compound 55]	1000 to 10000	30 to 50	–
Cn1cnnc1[C@@H](c1cccc(-n2cc3c(C(F)(F)F)cc(CN4CCC[C@H](OCCN5CCC(CN6CCN(c7ccc8c(c7)CN([C@H]7CCC(=O)NC7=O)C8=O)CC6)CC5)C4)cn3c2=O)c1)C1CCC1 [Compound 56]	30 to 300	> 70	–
